Test results: patent US4350754A, “Blocked development restrainers” (Polaroid Corporation, priority 1981, dated 1982)

Experiment: Release kinetics in solution: t1/2, time for one half of the molecule to cleave and release the azole moiety
Format: physicochemical
Conditions: 1×10^-4 molar in 30% acetonitrile/0.25 N aqueous KOH, 22°±0.1° C.; release of azole moiety
From the text: The release kinetics in solution of the compounds of the invention vary over a wide range.
*rate of hydrolysis approximates rate of release
**measured in 50% ethanol/water solution
***solution was 0.022N in KOH

t1/2 [s]	Structure (SMILES)
4320	O=c1[nH]cc(Cn2nc(-c3cccs3)oc2=S)c(=O)[nH]1 [XIV]
4.0	Cn1c(=O)[nH]cc(CSc2nnnn2-c2ccc(O)cc2)c1=O [Compound XI]
31.2	O=C(c1ccccc1)n1c(=O)[nH]cc(CSc2nnnn2-c2ccccc2)c1=O [XII]
35.9	O=c1[nH]cc(CSc2ncccn2)c(=O)[nH]1 [Compound XVIII]
0.87	CC(=NO)c1ccc(-n2nnnc2SCc2c[nH]c(=O)n(C)c2=O)cc1 [Compound XXVI]
1080	O=c1[nH]cc(Cn2nc(-c3ccccc3)oc2=S)c(=O)[nH]1 [Compound X]
0.81	Cn1c(=O)[nH]cc(CSc2nnnn2-c2ccccc2)c1=O [II]
77.8	O=c1[nH]cc(CSc2ncnc3[nH]cnc23)c(=O)[nH]1 [Compound XVII]
911	CC(=O)n1c(=O)[nH]cc(Cn2nnn(-c3ccccc3)c2=S)c1=O [Compound XXXI]

Structure (SMILES)	t1/2 [s]
O=c1[nH]cc(Cn2nnn(-c3ccccc3)c2=S)c(=O)[nH]1 [VII]	900
Cn1c(=O)[nH]cc(Cn2nnn(-c3ccccc3)c2=S)c1=O [VIII]	1512

Same assay, conditions: 30% acetonitrile/0.25 N aqueous KOH, 22° C.; rate of hydrolysis approximates rate of release

t1/2 [s]	Structure (SMILES)
1.8 to 4.0	CC(=O)Oc1ccc(-n2nnnc2SCc2c[nH]c(=O)n(C)c2=O)cc1 [V]

Same assay, conditions: hydrolysis; 30% acetonitrile/0.25 N aqueous KOH, 22° C.

t1/2 (hydrolysis) [s]	Structure (SMILES)
2.5	CC(=O)Oc1ccc(-n2nnnc2SCc2c[nH]c(=O)[nH]c2=O)cc1 [Compound XX]

Same assay, conditions: measured in 50% ethanol/water solution; 22° C.

Structure (SMILES)	t1/2 [s]
Cc1ccc(Nc2nnc([Se]Cc3c[nH]c(=O)[nH]c3=O)[se]2)cc1 [Compound XIX]	48.8
